How the values were obtained:
[1] = molecular target: T1, small-conductance Ca2+-activated K+ channels (SK channels, subtype 3), hSK3 (Homo sapiens, UniProt Q9UGI6); test: Whole-cell patch-clamp recording of ionic current through hSK3 channels expressed in HEK293 cells; format: cell-based; conditions: HEK293 cells expressing hSK3 channels
T1 construct: expressed in transfected cells; host or cells: HEK293
Experimental: The compounds of the invention may be tested for their usefulness as potassium channel modulating agents e.g. such as described in WO 2006/100212.
The ionic current through small-conductance Ca^2+-activated K^+ channels (SK channels, subtype 3) is recorded using the whole-cell configuration of the patch-clamp technique in a classic patch-clamp set-up using HEK293 tissue culture cells expressing hSK3 channels as described in e.g. WO 2006/100212
The SC100 value determined is defined as the Stimulating Concentration required for increasing the baseline current by 100%. The SC100 value determined for Compound 4.1 of the invention was 0.022±0.013 μM, which is an indication of its SK3 activating properties.

SC100 (Stimulating Concentration required for increasing the baseline current by 100%) [1]: 0.022 ± 0.013 µM
melting point: 186 to 187 °C
SMILES: Cc1cc(C)n(-c2nc(Nc3ccc(Cl)cc3)cc(N3CCOCC3)n2)n1 [Compound 4.1, (4-Chloro-phenyl)-[2-(3,5-dimethyl-pyrazol-1-yl)-6-morpholin-4-yl-pyrimidin-4-yl]-amine]

Reference: US8618099B2, “Pyrazolyl-pyrimidine derivatives and their use as potassium channel modulators” (Ataxion, Inc., priority 2008, dated 2013)
